The values that follow come from US12565511B2, “SOS1 inhibitor containing phosphorus” (Chia Tai Tianqing Pharmaceutical Group Co., Ltd., priority 2020, dated 2026).

The target of one assay is T1, SOS1cat / KRAS G12C (Homo sapiens, UniProt Q07889).
T1 sequence (Q07889 564-1049): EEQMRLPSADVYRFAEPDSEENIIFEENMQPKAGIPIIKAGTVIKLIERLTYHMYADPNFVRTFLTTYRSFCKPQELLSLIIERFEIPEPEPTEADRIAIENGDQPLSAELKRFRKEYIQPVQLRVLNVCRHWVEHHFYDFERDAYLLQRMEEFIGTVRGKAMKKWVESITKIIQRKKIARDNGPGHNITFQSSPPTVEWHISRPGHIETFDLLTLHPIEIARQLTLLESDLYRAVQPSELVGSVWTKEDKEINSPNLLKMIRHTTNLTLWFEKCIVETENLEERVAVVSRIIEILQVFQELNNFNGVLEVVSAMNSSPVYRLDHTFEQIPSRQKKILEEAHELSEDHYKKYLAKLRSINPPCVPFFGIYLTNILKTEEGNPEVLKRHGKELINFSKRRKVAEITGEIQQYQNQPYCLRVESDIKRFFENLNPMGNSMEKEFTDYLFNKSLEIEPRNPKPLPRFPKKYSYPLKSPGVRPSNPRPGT
Kind of assay: Guanine nucleotide exchange test (HTRF). The class given is biochemical. The settings on record: SOS1cat-mediated loading of EDA-GTP-DY-647P1 on His-KRAS G12C, 20° C.; read-out: Nucleotide conversion of HTRF IC50. The procedure: Test Example 2 Guanine Nucleotide Exchange Test
This test quantitatively investigates the ability of SOS to mediate KRAS activation. KRAS G12C with a His tag was added to the system, anti-His antibody labeled with lanthanide Eu was combined with the system, then auxiliary protein SOS1cat and GTP analogue EDA-GTP-DY-647P1 with fluorophore were added thereto, the GTP analogue with fluorophore was loaded on KRAS G12C with the assistance of the auxiliary protein, and then energy resonance transfer occurred between Anti-6HS-Cryptate (FRET donor) and EDA-GTP-DY-647P1 (FRET acceptor).
However, after pretreatment with SOS1 inhibitor compounds, the ability of SOS1 to bind and mediate KRAS activation was weakened, and the ability of FRET between donor and acceptor was weakened.
Test buffer was prepared with the following components: HEPES pH 7.4: 20 mM; NaCl: 150 mM; MgCl2: 0.5 mM; DTT: 2 mM; BSA: 0.05%; and Igepal: 0.0025%.
KRAS G12C working solution, SOS1cat working solution and blank control solution were prepared with the test buffers; wherein the KRAS G12C working solution contained 100 nM His-KRAS G12C and 2 nM […]; the SOS1cat working solution contained 20 nM SOS1cat and 200 nM EDA-GTP-DY-647P1; and the blank control solution contained 100 nM EDA-GTP-DY-647P1.
The whole test procedures were completed at 20° C.
For orientation: Time-resolved FRET reads energy transfer from a long-lived donor to a nearby acceptor.

The test system of a further assay is K562 cells. Kind of assay: Assay for proliferation inhibitory activity of K562 cells. The format is cell-based. The settings on record: Homo sapiens, 72 h, CCK-8, read-out: K562 cell proliferation inhibition IC50. The procedure:
Test Example 4 Assay for Proliferation Inhibitory Activity of K562 Cells
The K562 cell line can be purchased from the American Type Culture Collection (ATCC).
The K562 cells in a good growth state were added to a centrifuge tube with the cell density adjusted to 3×10^4/mL, and seeded on a 96-well plate (100 μL/well). The cells were cultured overnight in a cell incubator, the compound was loaded using a nanoliter pipettor to allow the final compound concentration to be 10000 nM to 4.6 nM, 2 replicate wells were set and control was set.

A further assay addresses T2, KRAS-G12C/SOS1 (Homo sapiens, UniProt Q07889).
T2 sequence (Q07889 564-1049): T1 sequence (Q07889 564-1049)
Kind of assay: biochemical.

Each structure is given as a SMILES string.

For the compound `Cc1nc(N[C@H](C)c2cccc(C(F)F)c2F)c2cc(P3(=O)CCN(S(C)(=O)=O)CC3)ncc2n1` [Example 20], the values for the IC50 at SOS1cat / KRAS G12C, in the assay on K562 cells and at KRAS-G12C/SOS1 were 482 nM, 292 nM and 78 nM, respectively.
On to `Cc1nc(N[C@H](C)c2cccc(C(F)F)c2F)c2cc(P3(=O)CCN(S(=O)(=O)C4CC4)CC3)ncc2n1` [Example 21], for which the IC50 is 481 nM on SOS1cat / KRAS G12C, 187 nM with K562 cells and 58 nM on KRAS-G12C/SOS1.
For the compound `Cc1nc(N[C@H](C)c2cccc(C(C)(F)F)c2F)c2cc(P3(=O)CCN(S(C)(=O)=O)CC3)ncc2n1` [Example 23], the IC50 at SOS1cat / KRAS G12C was found to be 283 nM; in the assay on K562 cells it was 118 nM.
With `Cc1nc(N[C@H](C)c2cccc(C(F)F)c2F)c2cc(P3(=O)CCN(S(C)(=O)=O)CC3)ccc2n1` [Example 27], the IC50 worked out at 542 nM on SOS1cat / KRAS G12C, 469 nM in the assay on K562 cells and 61 nM on KRAS-G12C/SOS1.
For the compound `Cc1nc(N[C@H](C)c2cccc(C(F)(F)F)c2F)c2cc(P3(=O)CCCCC3)ncc2n1` [Example 42], the results for the IC50 on SOS1cat / KRAS G12C, in the assay on K562 cells and on KRAS-G12C/SOS1 were 572 nM, 562 nM and 81 nM, respectively.
Regarding `Cc1nc(N[C@H](C)c2cccc(C(F)(F)F)c2F)c2cc(P3(=O)CCCC3)ncc2n1` [Example 43], the IC50 on SOS1cat / KRAS G12C came to 717 nM; in the assay on K562 cells, 1070 nM; at KRAS-G12C/SOS1, 215 nM.
With `Cc1nc(N[C@H](C)c2cc(N)cc(C(F)(F)F)c2)c2cc(P(C)(C)=O)c(O)cc2n1` [Example 44], on SOS1cat / KRAS G12C, the IC50 is 724 nM.
In the case of `Cc1nc(N[C@H](C)c2cc(N)cc(C(F)(F)F)c2)c2cc(P(C)(C)=O)c(OC(F)F)cc2n1` [Example 45], the IC50 amounted to 694 nM on SOS1cat / KRAS G12C and 1080 nM in the assay on K562 cells.
On to `Cc1nc(N[C@H](C)c2cc(N)cc(C(F)(F)F)c2)c2cc(P(C)(C)=O)c(OCF)cc2n1` [Example 46], for which the IC50 on SOS1cat / KRAS G12C is 498 nM; in the assay on K562 cells it was 491 nM.
As to `[2H]C([2H])([2H])Oc1cc2nc(C)nc(N[C@H](C)c3cc(N)cc(C(F)(F)F)c3)c2cc1P(C)(C)=O` [Example 47], the IC50 on SOS1cat / KRAS G12C is 573 nM; in the assay on K562 cells it was 440 nM.
The like results for `COCCN1CCP(=O)(c2cc3c(N[C@H](C)c4cccc(C(F)(F)F)c4)nc(C)nc3cn2)CC1` [Example 48] were, in that order, 895 nM and 1570 nM.
The like results for `Cc1nc(N[C@H](C)c2cccc(C(F)(F)F)c2)c2cc(P3(=O)CCN(C)CC3)ncc2n1` [Example 49] were, in that order, 1470 nM and 2150 nM.
On the same counts, the results for `Cc1nc(N[C@H](C)c2cccc(C(C)(F)F)c2F)c2cc(P3(=O)CCN(CC4CC4)CC3)ncc2n1` [Example 50] are 456 nM and 334 nM.
For `Cc1nc(N[C@H](C)c2cccc(C(C)(F)F)c2F)c2cc(P3(=O)CCN(C(=O)C4CCC4)CC3)ncc2n1` [Example 52], the IC50 stood at 455 nM at SOS1cat / KRAS G12C and 95 nM in the assay with K562 cells.
The like results for `COC(=O)N1CCP(=O)(c2cc3c(N[C@H](C)c4cccc(C(F)F)c4F)nc(C)nc3cn2)CC1` [Example 53] were, in that order, 504 nM and 93 nM.
`CNCc1ccccc1-c1csc([C@@H](C)Nc2nc(C)nc3cnc(P4(=O)CCN(C(=O)C5CC5)CC4)cc23)c1` [Example 54]: the values for the IC50 on SOS1cat / KRAS G12C and in the assay with K562 cells were 486 nM and 84 nM, respectively.
On the same counts, the results for `Cc1nc(N[C@H](C)c2cc(N)cc(C(F)(F)F)c2C)c2cc(P3(=O)CCN(C(=O)C(C)C)CC3)ncc2n1` [Example 58] are 433 nM and 31 nM.
The like results for `Cc1nc(N[C@H](C)c2cc(N)cc(C(F)(F)F)c2C)c2cc(P3(=O)CCN(C(=O)C4(F)CC4)CC3)ncc2n1` [Example 59] were, in that order, 448 nM and 21 nM.
Take `Cc1nc(N[C@H](C)c2cc(N)cc(C(F)(F)F)c2C)c2cc(P3(=O)CCN(C(=O)C(C)(C)F)CC3)ncc2n1` [Example 60]: the IC50 at SOS1cat / KRAS G12C amounted to 433 nM; with K562 cells it was 30 nM.
